One block for each compound: values may come before it.
Tests used:
Assay type in all cases: cell-based
[1] = biological target: KDR (Homo sapiens (Human), UniProt P35968); assay: KDR autophosphorylation ELISA in HUVEC cells; conditions: cellular, VEGF165-stimulated, phospho-KDR ELISA
Protocol: Human umbilical vein endothelial cells or HUVEC (Lonza #C2519A) were seeded at 2×10^4 cells/well onto 96-well plates (Corning #3904), in EGM-2 growth medium (Lonza #CC-3162) containing 1% Penicillin Streptomycin (Thermo Fisher #15140-122). HUVEC cells were incubated at 37° C., 5% CO2 for 24 h and then starved for 24 h in serum-free EBM-2 basal medium (Lonza #CC-3156) containing 1% Penicillin Streptomycin. Test compounds were serially diluted to produce an 8-point dose curve in fresh serum-free medium to a final concentration of 0.3% DMSO (vehicle) and added to the cells and incubated for 1 h. Cells were then stimulated with 100 ng/mL recombinant human VEGF165 (R&D Systems #293-VE-500) for 5 min, washed with cold PBS, and immediately lysed with 130 μL of cold 1× lysis buffer [20 mM Tris, 137 mM sodium chloride, 2 mM EDTA, 10% glycerol, 1% NP-40 alternative, 1 mM activated sodium orthovanadate, 1 mM PefaBloc SC (Sigma-Aldrich #11429868001), protease/phosphatase inhibitor tablet (Thermo Fisher #A32959)]. Lysates were collected and 100 μL/well added into the human phospho-KDR Duo Set IC ELISA (R&D Systems #DYC 1766-2). Assay was performed according to manufacturer's instructions and sample phospho-KDR concentrations were extrapolated using human phospho-KDR control (R&D Systems #841421) as a standard. Positive control wells (100% activity) contained VEGF165-stimulated, DMSO-treated cell lysates. Negative control wells (0% activity) contained non-stimulated cell lysates. IC50 values were calculated by nonlinear regression analysis using a 4-parameter logistic curve fit in ActivityBase XE (IDBS).

[2] = biological target: Mer (Homo sapiens (Human), UniProt Q12866); assay: Mer autophosphorylation ELISA in transient transfected 293A cells; conditions: cellular, MERTK-transfected 293A cells, phospho-Mer ELISA
Mer, sequence (Q12866 21-999): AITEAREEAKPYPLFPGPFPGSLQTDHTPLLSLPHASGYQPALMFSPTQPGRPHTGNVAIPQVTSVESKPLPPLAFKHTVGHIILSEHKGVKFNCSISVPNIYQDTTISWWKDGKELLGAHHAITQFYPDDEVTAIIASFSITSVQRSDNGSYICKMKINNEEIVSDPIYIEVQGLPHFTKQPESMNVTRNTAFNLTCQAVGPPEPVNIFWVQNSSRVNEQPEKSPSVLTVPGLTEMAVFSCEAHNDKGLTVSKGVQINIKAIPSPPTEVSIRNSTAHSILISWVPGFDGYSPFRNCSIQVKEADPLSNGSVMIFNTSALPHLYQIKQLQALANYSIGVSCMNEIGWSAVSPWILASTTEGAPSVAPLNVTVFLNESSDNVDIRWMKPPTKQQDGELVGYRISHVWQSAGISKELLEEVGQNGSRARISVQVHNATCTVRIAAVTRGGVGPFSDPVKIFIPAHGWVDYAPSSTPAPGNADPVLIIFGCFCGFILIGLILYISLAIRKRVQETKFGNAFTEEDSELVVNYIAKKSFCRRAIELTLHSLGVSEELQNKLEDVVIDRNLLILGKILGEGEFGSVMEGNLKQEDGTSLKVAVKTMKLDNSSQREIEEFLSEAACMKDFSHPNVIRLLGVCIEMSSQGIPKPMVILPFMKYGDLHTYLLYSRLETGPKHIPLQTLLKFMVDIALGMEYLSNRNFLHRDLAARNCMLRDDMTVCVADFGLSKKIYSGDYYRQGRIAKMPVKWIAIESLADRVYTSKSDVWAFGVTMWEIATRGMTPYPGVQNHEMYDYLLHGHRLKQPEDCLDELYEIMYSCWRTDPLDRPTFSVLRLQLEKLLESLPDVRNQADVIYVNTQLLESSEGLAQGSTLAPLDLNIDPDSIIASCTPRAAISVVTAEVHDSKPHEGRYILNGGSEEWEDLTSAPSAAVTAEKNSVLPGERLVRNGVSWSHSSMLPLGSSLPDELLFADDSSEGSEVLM
Protocol: 293A cells (Thermo Fisher #R70507) were seeded at 1.5×10^6 cells/well onto 100 mm dish (Greiner #664169), in DMEM (Thermo Fisher #11995-040) containing 10% FBS (Thermo Fisher #26140-079), 1% MEM NEAA (Thermo Fisher #11140-050), 1% GlutaMax (Thermo Fisher #35050-061), and 1% Penicillin Streptomycin (Thermo Fisher #15140-122). 293A cells were incubated at 37° C., 5% CO2 for 24 h and then transfected with 6 μg MERTK DNA (Genecopoeia #EX-Z8208-M02) using TransIT LT1 transfection reagent (Mirus-Bio #MIR2305). After 24 h incubation, the transfected 293A cells were seeded at 1×10^5 cells/well onto 96-well plates (Corning #3904) in DMEM growth medium overnight. Test compounds were serially diluted to produce an 8-point dose curve in fresh serum-free medium to a final concentration of 0.3% DMSO (vehicle) and added to the cells and incubated for 1 h. Cells were then immediately lysed with 150 μL of cold IX lysis buffer [20 mM Tris, 137 mM sodium chloride, 2 mM EDTA, 10% glycerol, 1% NP-40 alternative, 1 mM activated sodium orthovanadate, 1 mM PefaBloc SC (Sigma-Aldrich #11429868001), protease/phosphatase inhibitor tablet (Thermo Fisher #A32959)]. Lysates were clarified by centrifugation and 50 μL/well added into the human phospho-Mer DuoSet IC ELISA (R&D Systems #DYC2579-2). Assay was performed according to manufacturer's instructions and sample phospho-Mer concentrations were extrapolated using human phospho-Mer control (R&D Systems #841793) as a standard. Positive control wells (100% activity) contained DMSO-treated cell lysates. Negative control wells (0% activity) contained reference inhibitor-treated cell lysates. IC50 values were calculated by nonlinear regression analysis using a 4-parameter logistic curve fit in ActivityBase XE (IDBS).

[3] = biological target: Met (Homo sapiens (Human), UniProt P08581); assay: Met autophosphorylation ELISA in PC-3 cells; conditions: cellular, HGF-stimulated, phospho-Met ELISA, read-out: c-Met IC50
Met, sequence (P08581 25-1390): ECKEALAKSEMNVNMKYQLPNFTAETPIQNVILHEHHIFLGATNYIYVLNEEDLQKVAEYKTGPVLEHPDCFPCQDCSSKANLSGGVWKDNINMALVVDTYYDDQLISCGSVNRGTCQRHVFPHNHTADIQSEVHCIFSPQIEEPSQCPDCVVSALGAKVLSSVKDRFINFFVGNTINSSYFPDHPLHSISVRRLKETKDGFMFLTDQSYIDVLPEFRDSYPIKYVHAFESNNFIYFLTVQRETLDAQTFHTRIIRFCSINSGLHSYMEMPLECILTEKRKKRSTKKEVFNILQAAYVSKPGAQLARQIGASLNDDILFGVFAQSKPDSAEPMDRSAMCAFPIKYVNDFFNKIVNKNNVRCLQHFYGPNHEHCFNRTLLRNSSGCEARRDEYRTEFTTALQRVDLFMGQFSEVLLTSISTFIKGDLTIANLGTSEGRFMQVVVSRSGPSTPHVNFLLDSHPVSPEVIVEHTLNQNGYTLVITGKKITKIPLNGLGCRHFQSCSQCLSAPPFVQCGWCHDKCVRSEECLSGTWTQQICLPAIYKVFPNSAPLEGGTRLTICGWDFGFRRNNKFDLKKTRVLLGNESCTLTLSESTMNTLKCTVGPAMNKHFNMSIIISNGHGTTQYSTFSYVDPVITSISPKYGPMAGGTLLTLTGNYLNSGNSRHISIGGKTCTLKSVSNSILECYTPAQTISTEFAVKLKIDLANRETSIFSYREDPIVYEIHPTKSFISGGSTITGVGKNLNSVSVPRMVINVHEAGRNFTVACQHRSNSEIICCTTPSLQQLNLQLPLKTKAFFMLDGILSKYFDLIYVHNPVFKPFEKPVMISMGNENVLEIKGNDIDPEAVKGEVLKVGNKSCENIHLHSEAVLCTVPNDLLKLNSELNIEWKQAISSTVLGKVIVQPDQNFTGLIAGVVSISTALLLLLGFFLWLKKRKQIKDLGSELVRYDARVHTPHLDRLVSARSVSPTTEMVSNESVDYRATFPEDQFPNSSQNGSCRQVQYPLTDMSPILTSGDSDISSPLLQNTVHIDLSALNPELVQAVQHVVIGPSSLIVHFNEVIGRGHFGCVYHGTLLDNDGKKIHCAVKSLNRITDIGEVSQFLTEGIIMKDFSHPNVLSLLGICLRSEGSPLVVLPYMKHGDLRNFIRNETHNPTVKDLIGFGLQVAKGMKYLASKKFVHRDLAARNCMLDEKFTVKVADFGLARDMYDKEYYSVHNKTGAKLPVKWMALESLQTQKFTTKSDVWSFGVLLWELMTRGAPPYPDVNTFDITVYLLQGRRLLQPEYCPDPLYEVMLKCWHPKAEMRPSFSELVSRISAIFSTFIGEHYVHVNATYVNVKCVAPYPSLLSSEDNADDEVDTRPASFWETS
Protocol: PC-3 prostate cancer cells (ATCC #CRL-1435) were seeded at 4×10^4 cells/well onto 24-well plates (Greiner #662165), in DMEM (Thermo Fisher #11995-040) containing 10% FBS (Thermo Fisher #26140-079), 1% MEM NEAA (Thermo Fisher #11140-050), 1% GlutaMax (Thermo Fisher #35050-061), and 1% Penicillin Streptomycin (Thermo Fisher #15140-122). PC-3 cells were incubated at 37° C., 5% CO2 for 24 h and then starved for 3 h in serum-free medium. Test compounds were serially diluted to produce an 8-point dose curve in fresh serum-free medium to a final concentration of 0.3% DMSO (vehicle) and added to the cells and incubated for 1 h. Cells were then stimulated with 100 ng/mL recombinant human HGF (R&D Systems #294-HG-250) for 10 min, washed with cold PBS, and immediately lysed with 130 μL of cold IX lysis buffer [20 mM Tris, 137 mM sodium chloride, 2 mM EDTA, 10% glycerol, 1% NP-40 alternative, 1 mM activated sodium orthovanadate, 1 mM PefaBloc SC (Sigma-Aldrich #11429868001), protease/phosphatase inhibitor tablet (Thermo Fisher #A32959)]. Lysates were clarified by centrifugation and 100 μL/well added into the PathScan phospho-Met (panTyr) Sandwich ELISA (Cell Signaling Technology #7333). Assay was performed according to manufacturer's instructions. Positive control wells (100% activity) contained HGF-stimulated, DMSO-treated cell lysates. Negative control wells (0% activity) contained HGF-stimulated, reference inhibitor-treated cell lysates. IC50 values were calculated by nonlinear regression analysis using a 4-parameter logistic curve fit in ActivityBase XL (IDBS).

[4] = biological target: AXL (Homo sapiens (Human), UniProt P30530); assay: AXL autophosphorylation ELISA in A-172 cells; conditions: cellular, Gas6-stimulated, phospho-AXL ELISA
AXL, sequence (P30530 26-894): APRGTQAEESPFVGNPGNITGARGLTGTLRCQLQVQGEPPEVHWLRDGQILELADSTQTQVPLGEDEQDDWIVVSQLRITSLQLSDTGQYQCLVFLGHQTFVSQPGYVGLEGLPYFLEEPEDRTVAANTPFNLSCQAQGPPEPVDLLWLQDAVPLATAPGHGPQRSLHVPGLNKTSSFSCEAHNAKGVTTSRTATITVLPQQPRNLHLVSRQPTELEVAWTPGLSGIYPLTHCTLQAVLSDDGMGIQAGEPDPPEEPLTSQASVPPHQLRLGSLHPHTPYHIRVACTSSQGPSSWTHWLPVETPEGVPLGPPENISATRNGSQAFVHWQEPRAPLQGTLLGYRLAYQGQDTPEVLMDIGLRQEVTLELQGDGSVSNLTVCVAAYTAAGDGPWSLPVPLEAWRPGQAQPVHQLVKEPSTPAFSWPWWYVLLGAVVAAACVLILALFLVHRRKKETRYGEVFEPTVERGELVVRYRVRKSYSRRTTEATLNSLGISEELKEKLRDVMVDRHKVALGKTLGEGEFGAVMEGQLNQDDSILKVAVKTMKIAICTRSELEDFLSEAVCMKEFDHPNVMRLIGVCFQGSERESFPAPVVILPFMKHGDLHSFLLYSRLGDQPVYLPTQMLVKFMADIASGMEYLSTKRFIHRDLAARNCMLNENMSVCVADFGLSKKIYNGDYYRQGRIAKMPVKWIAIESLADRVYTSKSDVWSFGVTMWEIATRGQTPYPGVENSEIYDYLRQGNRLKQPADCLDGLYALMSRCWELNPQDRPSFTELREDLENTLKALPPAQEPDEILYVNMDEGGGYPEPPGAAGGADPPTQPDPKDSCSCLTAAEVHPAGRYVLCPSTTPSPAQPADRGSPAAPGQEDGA
Protocol: A-172 glioblastoma cells (ATCC #CRL-1620) were seeded at 2.5×10^5 cells/well onto 24-well plates (Greiner #662165), in DMEM (Thermo Fisher #11995-040) containing 10% FBS (Thermo Fisher #26140-079), 1% MEM NEAA (Thermo Fisher #11140-050), 1% GlutaMax (Thermo Fisher #35050-061), and 1% Penicillin Streptomycin (Thermo Fisher #15140-122). A-172 cells were incubated at 37° C., 5% CO2 for 24 h and then starved for 24 h in serum-free medium. Test compounds were serially diluted to produce an 8-point dose curve in fresh serum-free medium to a final concentration of 0.3% DMSO (vehicle) and added to the cells and incubated for 1 h. Cells were then stimulated with 1 μg/mL recombinant human Gas6 (R&D Systems #885-GSB-500) for 15 min, washed with cold PBS, and immediately lysed with 150 μL of cold IX lysis buffer [20 mM Tris, 137 mM sodium chloride, 2 mM EDTA, 10% glycerol, 1% NP-40 alternative, 1 mM activated sodium orthovanadate, 1 mM PefaBloc SC (Sigma-Aldrich #11429868001), protease/phosphatase inhibitor tablet (Thermo Fisher #A32959)]. Lysates were collected and 100 μL/well added into the human phospho-AXL Duo Set IC ELISA (R&D Systems #DYC2228-2). Assay was performed according to manufacturer's instructions and sample phospho-AXL concentrations were extrapolated using human phospho-AXL control (R&D Systems #841645) as a standard. Positive control wells (100% activity) contained Gas6-stimulated, DMSO-treated cell lysates. Negative control wells (0% activity) contained Gas6-stimulated, reference inhibitor-treated cell lysates. IC50 values were calculated by nonlinear regression analysis using a 4-parameter logistic curve fit in ActivityBase XL (IDBS).

KDR, sequence (P35968 20-1356): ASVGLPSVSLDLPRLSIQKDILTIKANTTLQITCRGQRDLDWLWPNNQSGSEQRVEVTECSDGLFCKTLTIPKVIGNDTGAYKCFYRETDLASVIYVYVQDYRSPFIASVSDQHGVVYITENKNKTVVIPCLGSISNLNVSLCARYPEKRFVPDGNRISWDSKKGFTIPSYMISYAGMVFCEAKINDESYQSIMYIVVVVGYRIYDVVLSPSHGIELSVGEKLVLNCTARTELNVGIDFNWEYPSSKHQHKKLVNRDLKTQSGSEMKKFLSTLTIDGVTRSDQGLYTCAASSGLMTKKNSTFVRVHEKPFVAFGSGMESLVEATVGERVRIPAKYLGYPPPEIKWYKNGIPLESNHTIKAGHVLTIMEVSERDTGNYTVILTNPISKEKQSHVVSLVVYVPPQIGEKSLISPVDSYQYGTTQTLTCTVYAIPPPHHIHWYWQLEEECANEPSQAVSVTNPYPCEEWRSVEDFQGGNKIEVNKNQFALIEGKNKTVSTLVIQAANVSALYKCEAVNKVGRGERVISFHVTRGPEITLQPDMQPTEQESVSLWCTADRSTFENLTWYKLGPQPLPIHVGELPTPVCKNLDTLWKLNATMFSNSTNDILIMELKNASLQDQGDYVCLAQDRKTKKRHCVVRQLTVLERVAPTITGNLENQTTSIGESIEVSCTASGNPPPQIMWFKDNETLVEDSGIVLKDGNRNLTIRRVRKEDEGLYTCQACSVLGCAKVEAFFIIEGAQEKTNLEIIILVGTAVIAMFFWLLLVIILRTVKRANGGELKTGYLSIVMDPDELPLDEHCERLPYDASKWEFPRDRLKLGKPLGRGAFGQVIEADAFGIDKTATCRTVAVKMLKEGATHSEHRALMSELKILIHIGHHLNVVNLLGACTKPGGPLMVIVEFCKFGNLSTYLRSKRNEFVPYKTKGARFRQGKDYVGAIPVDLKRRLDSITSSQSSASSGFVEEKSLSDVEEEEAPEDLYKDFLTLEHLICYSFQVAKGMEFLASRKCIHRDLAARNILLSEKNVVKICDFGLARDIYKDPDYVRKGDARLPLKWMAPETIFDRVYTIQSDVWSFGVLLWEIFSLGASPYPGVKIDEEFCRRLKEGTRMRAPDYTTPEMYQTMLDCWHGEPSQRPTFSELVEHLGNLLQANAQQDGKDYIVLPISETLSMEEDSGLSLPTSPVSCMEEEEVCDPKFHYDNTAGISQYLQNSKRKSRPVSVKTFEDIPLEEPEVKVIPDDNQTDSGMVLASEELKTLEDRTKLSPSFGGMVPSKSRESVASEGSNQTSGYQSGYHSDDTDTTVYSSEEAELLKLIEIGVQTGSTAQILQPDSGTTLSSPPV

IC50 [1]: ≤ 10 nM | IC50 [2]: 10 to 100 nM | IC50 [3]: 10 to 100 nM | IC50 [4]: ≤ 10 nM
SMILES: COCCOc1cc2ncnc(Oc3ccc(NC(=O)C4(C(=O)Nc5ccc(F)cc5)CC4)c(F)c3F)c2nc1OC [Compound 82, 1-N′-[2,3-difluoro-4-[6-methoxy-7-(2-methoxy-ethoxy)pyrido[3,2-d]pyrimidin-4-yl]oxyphenyl]-1-N-(4-fluorophenyl)cyclo-propane-1,1-dicarboxamide]

IC50 [1]: ≤ 10 nM | IC50 [2]: ≤ 10 nM | IC50 [3]: 10 to 100 nM | IC50 [4]: ≤ 10 nM
SMILES: COCCOc1cc2ncnc(Oc3ccc(NC(=O)C4(C(=O)Nc5ccc(F)cc5)CC4)cc3F)c2nc1OC [Compound 79, 1-N′-[3-fluoro-4-[6-methoxy-7-(2-methoxyethoxy)pyrido[3,2-d]pyrimidin-4-yl]oxy-phenyl]-1-N-(4-fluorophenyl)cyclopropane-1,1-dicarboxamide]

IC50 [1]: ≤ 10 nM | IC50 [2]: ≤ 10 nM | IC50 [3]: 10 to 100 nM | IC50 [4]: ≤ 10 nM
SMILES: COCCOc1cc2nccc(Oc3ccc(NC(=O)C4(C(=O)Nc5ccc(F)cc5)CC4)cc3)c2nc1OC [Compound 149, 1-N′-(4-fluorophenyl)-1-N-[4-[[6-methoxy-7-(2-methoxyethoxy)-1,5-naphthyridin-4-yl]oxy]phenyl]cyclopropane-1,1-dicarboxamide]

IC50 [1]: ≤ 10 nM | IC50 [2]: 10 to 100 nM | IC50 [3]: 10 to 100 nM | IC50 [4]: 10 to 100 nM
SMILES: COCCOc1cc2nccc(Oc3ccc(NC(=O)C4(C(=O)Nc5ccc(F)cc5)CC4)cc3Cl)c2nc1OC [Compound 151, 1-N′-[3-chloro-4-[[6-methoxy-7-(2-methoxyethoxy)-1,5-naphthyridin-4-yl]oxy]phenyl]-1-N-(4-fluoro-phenyl)cyclopropane-1,1-dicarboxamide]

IC50 [1]: 10 to 100 nM | IC50 [2]: ≤ 10 nM | IC50 [3]: ≤ 10 nM | IC50 [4]: ≤ 10 nM
SMILES: COc1cc2ncnc(Oc3cc(F)c(NC(=O)C4(C(=O)Nc5ccc(F)cc5)CC4)cc3F)c2nc1OC [Compound 35, 1-N′-[4-(6,7-dimethoxypyrido[3,2-d]pyrimidin-4-yl)oxy-2,5-difluorophenyl]-1-N-(4-fluorophenyl)cyclo-propane-1,1-dicarboxamide]

IC50 [1]: 10 to 100 nM | IC50 [2]: ≤ 10 nM | IC50 [3]: 10 to 100 nM | IC50 [4]: ≤ 10 nM
SMILES: COCCOc1cc2ncnc(Oc3ccc(NC(=O)C4(C(=O)Nc5ccc(F)cc5)CC4)c(F)c3)c2nc1OC [Compound 81, 1-N′-[2-fluoro-4-[6-methoxy-7-(2-methoxyethoxy)pyrido[3,2-d]pyrimidin-4-yl]oxy-phenyl]-1-N-(4-fluorophenyl)cyclopropane-1,1-dicarboxamide]

Further lines, the compound ahead of its results:

SMILES: Cn1cc(-c2cc3ncnc(Oc4ccc(NC(=O)C5(C(=O)Nc6ccc(F)cc6)CC5)cc4)c3cn2)cn1 [Compound 130, 1-N′-(4-fluorophenyl)-1-N-[4-[7-(1-methylpyrazol-4-yl)pyrido[4,3-d]pyrimidin-4-yl]oxyphenyl]cyclopropane-1,1-dicarboxamide]
IC50 [1]: ≤ 10 nM | IC50 [2]: 10 to 100 nM | IC50 [3]: 10 to 100 nM | IC50 [4]: 10 to 100 nM

SMILES: COc1nc2c(Oc3ccc(NC(=O)C4(C(=O)Nc5ccc(F)cc5)CC4)cc3C)ncnc2cc1OCCCN1CCOCC1 [Compound 68, 1-N-(4-fluorophenyl)-1-N′-[4-[6-methoxy-7-(3-morpholin-4-ylpropoxy)pyrido[3,2-d]pyrimidin-4-yl]oxy-3-methylphenyl]cyclopropane-1,1-dicarboxamide]
IC50 [1]: 10 to 100 nM | IC50 [2]: 10 to 100 nM | IC50 [3]: 100 to 300 nM | IC50 [4]: 10 to 100 nM

SMILES: COc1nc2c(Oc3ccc(NC(=O)C4(C(=O)Nc5ccc(F)cc5)CC4)c(F)c3F)ncnc2cc1OCCCN1CCOCC1 [Compound 73, 1-N′-[2,3-difluoro-4-[6-methoxy-7-(3-morpholin-4-ylpropoxy)pyrido[3,2-d]pyrimidin-4-yl]oxyphenyl]-1-N-(4-fluoro-phenyl)cyclopropane-1,1-dicarboxamide]
IC50 [1]: ≤ 10 nM | IC50 [2]: ≤ 10 nM | IC50 [3]: 10 to 100 nM | IC50 [4]: ≤ 10 nM

SMILES: COc1nc2c(Oc3cc(F)c(NC(=O)C4(C(=O)Nc5ccc(F)cc5)CC4)cc3F)ncnc2cc1OCCCN1CCOCC1 [Compound 72, 1-N′-[2,5-difluoro-4-[6-methoxy-7-(3-morpholin-4-ylpropoxy)pyrido[3,2-d]pyrimidin-4-yl]oxyphenyl]-1-N-(4-fluorophenyl)cyclo-propane-1,1-dicarboxamide]
IC50 [1]: 10 to 100 nM | IC50 [2]: 10 to 100 nM | IC50 [3]: 10 to 100 nM | IC50 [4]: ≤ 10 nM

SMILES: Cn1cc(-c2cnc3c(Oc4ccc(NC(=O)C5(C(=O)Nc6ccc(F)cc6)CC5)cc4)ncnc3c2)cn1 [Compound 129, 1-N′-(4-fluorophenyl)-1-N-[4-[7-(1-methylpyrazol-4-yl)pyrido[3,2-d]pyrimidin-4-yl]oxyphenyl]cyclo-propane-1,1-dicarboxamide]
IC50 [1]: 100 to 300 nM | IC50 [2]: 100 to 300 nM | IC50 [3]: 100 to 300 nM | IC50 [4]: 10 to 100 nM
